Source: patent US20220325242A1, “IDH2 INHIBITION FOR PRODUCING T-CELLS AND B-CELLS WITH A MEMORY PHENOTYPE” (Universite de Lausanne, priority 2019, published 2022)

Assays:
[1] = tested on: OT1 CD8+ T-cells; experiment: Flow cytometry of surface activation and memory markers on in vitro cultured OT1 CD8+ T-cells; type: cell-based, mouse; conditions: 5 μM inhibitor day 0-3, flow cytometry on day 3 and 7
Experimental: Example 2. In vitro culture of splenocytes comprising CD8+ T-cells. OT1 splenocytes (as described in Example 1) were cultured for 3 days at a concentration of 10^6 cells per mL in RPMI medium (Gibco 61870-01) supplemented with 10% FCS, (Gibco 10270-106), 1% Penicillin/Streptomycin (P/S; Gibco 15070-063), 0.1% 13-mercaptoethanol, 1% HEPES (Gibco 15630-080), 1× Non-essential amino acids (Gibco 11140-035), 1% L-glutamine (Gibco 25030-081), 1 mM Sodium Pyruvate (Gibco 11360-039), 100 U/m1 hIL-2 (Glaxo-IMB) and 1 μg/ml ovalbumin N4 peptide (SIINFEKL). To evaluate the effects of IDH2 inhibition on T-cell differentiation, 5 μM of a small molecule IDH2 inhibitor (AG221 or AGI6780) or a DMSO solvent control was added during this 3-day culture period. At day 3, a fraction of the splenocytes was collected and the remaining cells were cultured for 4 additional days with 100 U/ml hIL-2 and 10 ng/ml hIL-7 (Peprotech 200-07) supplementation after washing out the inhibitors and the ovalbumine N4 peptide (FIG. 1). At day 3 and day 7, the activation and differentiation state of CD8+ T-cells was determined by gene expression analysis, flow cytometry and extracellular metabolic flux analyses (see Example 3).
Cells were incubated in a live/dead stain (Fixable aqua dead cell stain kit, Invitrogen) followed by an incubation with different antibody panels.
Antibody panel to determine the differentiation and activation state of in vitro cultured T-cells (see Examples 2 and 4): anti-CD8-PE-texas-Red, anti-CD62L-FITC, anti-CD127-PE, anti-CD27-PerCP-Cy5.5, anti-CD71-PE-Cy7, anti-CD44-APC-Cy7, anti-CD98-APC, anti-CD25-Pacific blue (BD Pharmingen and eBioscience, San Diego, Calif., USA). All those antigens are surface molecules. Cells were gated on living single CD8+ cells before analysis of activation and memory marker expression. For the unstained control, cells were stained with the live/dead stain and anti-CD8-PE-texas-Red.
Cells were acquired on LSR-II flow cytometers from the flow cytometry facility of UNIL and data were analyzed with FlowJo™ 10 software. Antibodies were purchased from BD Phamingen (San Diego, Calif., USA), eBioscience (San Diego, Calif., USA, and Biolegend (San Diego, Calif., USA).

[2] = tested on: human CD8+ T-cells; experiment: Cytokine expression after PMA and Ionomycin restimulation of human CBMC-derived T-cells; type: cell-based; conditions: day 11 cells, inhibitors washed out, PMA and ionomycin 4 hours
Experimental: (§1) Methods: Mononuclear Cells were isolated from fresh umbilical cord blood on a Percoll Gradient (CBMCs). 10^4 CBMC's were seeded per well in a round bottom 96-well plate in RPMI with 10% human serum, and activated with (magnetic) αCD3/CD28 at a 1:2 cell:bead ratio and 300 U/ml rhIL-2, in the presence of 5 μM AG221 or DMSO, or 1 μM MK2206 (AKT inhibitor). After 11 days of culture, CD62L expression was analyzed by flow cytometry on a fraction of the cells (FIG. 15A). The other cells were washed 2 times and placed in a magnet to remove the inhibitors and the αCD3/CD28 beads. The cells were then rested for 4 hours before restimulating them for 4 hours with 1 ng/ml Phorbol 12-Myristate 13-Acetate (PMA, a PKC activator) and 50 μg/ml Ionomycin (a Ca^2+ ionophore, activating NF-KB and NFAT) in the presence of 50 μ/ml golgi inhibitor (Brefeldin A, BFA), allowing for the measurement of intracellular accumulation of different cytokines by flow cytometry.

[3] = tested on: human CD8+ T-cells from umbilical cord blood; experiment: CD62L flow cytometry of human cord blood mononuclear cells (CBMC); type: cell-based; conditions: day 11; AG221 5 μM, MK2206 1 μM; DMSO control about 35%
Experimental: as §1

Structure (SMILES) | CD62L surface expression compared to DMSO [1] | other surface markers (CD25, CD44, CD71, CD98, CD27, CD127) compared to DMSO [1] | TNF expression upon restimulation [2] | expression of effector cytokine IFNγ upon restimulation [2] | production of IL-2 upon restimulation [2] | CD8+ cells expressing CD62L [3]
O=C(Nc1cccc(C(F)(F)F)c1)Nc1cc(S(=O)(=O)NC2CC2)ccc1-c1ccsc1 [AGI6780, 1-[5-(cyclopropylsulfamoyl)-2-thiophen-3-ylphenyl]-3-[3-(trifluoromethyl)phenyl]urea] | increased | generally unchanged |  |  |  | 
NC1(c2ccc(-c3nc4ccn5c(=O)[nH]nc5c4cc3-c3ccccc3)cc2)CCC1 [MK2206] |  |  | unaffected | detrimental | unaltered | about 75%
